Assay results taken from patent US20090176817A1, “Method of Treatment of Diarrhea-Predominant Irritable Bowel Syndrome in a Subject” (priority 2005, published 2009).

Test system: diarrhea-predominant IBS subjects
Test: Study S241.3.009: weekly diary questions on adequate relief
Type: in vivo, human
Settings: ITT, 2 mg TID; for Number of months a subject was a responder: Three months (IBS symptoms) / Number of months a subject was a responder: Two months (Abdominal pain/discomfort) / Number of months a subject was a responder: Two months (Abnormal bowel habits) / Number of months a subject was a responder: Two months (IBS symptoms) / Number of months a subject was a responder: Zero months (Abdominal pain/discomfort) / Number of months a subject was a responder: Zero months (Abnormal bowel habits) / Number of months a subject was a responder: Zero months (IBS symptoms) / Number of months a subject was a responder: One month (Abdominal pain/discomfort) / Number of months a subject was a responder: One month (Abnormal bowel habits) / Number of months a subject was a responder: One month (IBS symptoms) / Number of months a subject was a responder: Three months (Abdominal pain/discomfort) / Number of months a subject was a responder: Three months (Abnormal bowel habits): Months 1 to 3, monthly LOCF; for Overall responder rate, adequate relief of IBS symptoms / Overall responder rate, adequate relief of abdominal pain/discomfort / Overall responder rate, adequate relief of abnormal bowel habits: 26-week treatment period, observed case
Procedure: Study S241.3.009 was a Phase III, a double-blind, placebo-controlled, randomized, multinational study to investigate the safety and efficacy of 2 mg TID of cilansetron over 26 weeks in diarrhea-predominant IBS subjects. The study was conducted in 146 multinational study centers. A total of 1307 subjects consented to participate, and 806 subjects were randomized. A total of 792 subjects were analyzed for efficacy and 799 subjects were analyzed for safety. Diagnosis and main criteria for inclusion were IBS subjects satisfying the Rome I criteria (1992); the diarrhea-predominant sub-population of the Rome II criteria; and a minimum abdominal pain/discomfort, stool frequency and consistency determined during the run-in period. Subjects were treated with cilansetron 2 mg tablets given orally TID or matching placebo tablets given orally TID for 26 weeks.
The primary efficacy parameter was the overall response rate for IBS symptoms, based on the weekly question concerning adequate relief of IBS symptoms (abdominal pain/discomfort, abnormal bowel habits) over the 26 weeks period. A responder was a subject who responded “yes” at least 50% of the time during his/her treatment period, with minimum treatment duration of four weeks. The two main secondary efficacy parameters were overall responder rate based on the weekly question on adequate relief of abdominal pain/discomfort and abnormal bowel habits during the 26-week treatment period. The onset of action of cilansetron was also examined using daily diary data (stool frequency, and ratings of urgency and severity) during the initial 8 weeks of trial participation. An additional key secondary efficacy parameter was the number of months (one month equals four weeks) up to six months (24-weeks) that a subject was a responder for IBS symptoms, where a responder was defined as a subject who answered the weekly question with “yes” at least twice for that month. The responder rate for the weekly diary questions on adequate relief at each month and all months, the adequate relief rate, the number of subjects with adequate relief by week, daily diary questions, IBS-QOL scores, and the interruption of activities were also assessed. Safety was evaluated by physical examination, ECG, vital signs, laboratory evaluations, concomitant medications, and AEs.
Studies S24 1.3.OO6, S24 1.3.0 1 1, and S24 1.3.009 used the following efficacy measurements: • The subjects answered the following three questions with “yes” or “no” using a phone diary at the end of each week: • a) During the last week, did you experience adequate relief of your IBS symptoms, such as abdominal pain, abdominal discomfort, abnormal bowel habits? • b) During the last week, did you experience adequate relief of your abdominal pain and/or discomfort? • c) During the last week, did you experience adequate relief of your abnormal bowel habits? • The subjects rated the following symptoms using the phone diary at the end of each day: • abdominal pain/discomfort (five-point scale); • stool consistency (seven-point Bristol Stool Scale); • stool frequency (number of bowel movements each day); • urgency (five-point scale); • straining (yes or no); • feeling of incomplete defecation (yes or no); • bloating or feeling of abdominal distension (five-point scale). • In Studies S241 A006 and S241.3.009, subjects completed the IBS-QOL Survey at Baseline (Day 1) and at the end of treatment. In Study S24 1.3.0 1 1, subjects completed the IBS-QOL Survey at Baseline (Day 1), at the end of the three-month treatment period, and at the end of rerandomized treatment.
In all three pivotal efficacy studies, the primary and main secondary efficacy parameters were based on the weekly diary questions on adequate relief and included the following: • 1. Number of months (one month equals four weeks) that a subject was a responder for the weekly diary questions on adequate relief. […]

[1] = Baseline severity of IBS: non-severe
[2] = Baseline severity of IBS: severe
[3] = Duration of IBS: >24 months to ≦48 months, monthly LOCF imputation

## Cc1nccn1C[C@H]1CCc2c(c3cccc4c3n2CCC4)C1=O [Cilansetron, (R)-(−)-4,5,6,8,9,10-hexahydro-10-[(2-methyl-1H-imidazol-1-yl)methyl]-11H-pyrido-[3,2,1-jk]-carbazol-11-one]
Baseline BMI: <30 kg/m^2
  Number of months a subject was a responder: Three months (IBS symptoms): 131 (40) n (%)
  Number of months a subject was a responder: Two months (Abdominal pain/discomfort): 58 (18) n (%)
  Number of months a subject was a responder: Two months (Abnormal bowel habits): 69 (21) n (%)
  Number of months a subject was a responder: Two months (IBS symptoms): 64 (19) n (%)
  Number of months a subject was a responder: Zero months (Abdominal pain/discomfort): 82 (25) n (%)
  Number of months a subject was a responder: Zero months (Abnormal bowel habits): 78 (24) n (%)
  Number of months a subject was a responder: Zero months (IBS symptoms): 86 (26) n (%)
Baseline BMI: ≧30 kg/m^2
  Overall responder rate, adequate relief of IBS symptoms: 27 (42) n (%)
  Overall responder rate, adequate relief of abdominal pain/discomfort: 32 (49) n (%)
  Overall responder rate, adequate relief of abnormal bowel habits: 33 (51) n (%)
  Number of months a subject was a responder: One month (Abdominal pain/discomfort): 10 (15) n (%)
  Number of months a subject was a responder: One month (Abnormal bowel habits): 10 (15) n (%)
  Number of months a subject was a responder: One month (IBS symptoms): 6 (9) n (%)
  Number of months a subject was a responder: Three months (Abdominal pain/discomfort): 20 (31) n (%)
  Number of months a subject was a responder: Three months (Abnormal bowel habits): 21 (32) n (%)
  Number of months a subject was a responder: Three months (IBS symptoms): 19 (29) n (%)
  Number of months a subject was a responder: Two months (Abdominal pain/discomfort): 12 (18) n (%)
  Number of months a subject was a responder: Two months (Abnormal bowel habits): 14 (22) n (%)
  Number of months a subject was a responder: Two months (IBS symptoms): 16 (25) n (%)
  Number of months a subject was a responder: Zero months (Abdominal pain/discomfort): 23 (35) n (%)
  Number of months a subject was a responder: Zero months (Abnormal bowel habits): 20 (31) n (%)
  Number of months a subject was a responder: Zero months (IBS symptoms): 24 (37) n (%)
[1]
  Overall responder rate, adequate relief of IBS symptoms: 149 (61) n (%)
  Overall responder rate, adequate relief of abdominal pain/discomfort: 150 (61) n (%)
  Overall responder rate, adequate relief of abnormal bowel habits: 161 (65) n (%)
  Number of months a subject was a responder: One month (Abdominal pain/discomfort): 42 (17) n (%)
  Number of months a subject was a responder: One month (Abnormal bowel habits): 31 (13) n (%)
  Number of months a subject was a responder: One month (IBS symptoms): 37 (15) n (%)
  Number of months a subject was a responder: Three months (Abdominal pain/discomfort): 102 (41) n (%)
  Number of months a subject was a responder: Three months (Abnormal bowel habits): 104 (42) n (%)
  Number of months a subject was a responder: Three months (IBS symptoms): 95 (39) n (%)
  Number of months a subject was a responder: Two months (Abdominal pain/discomfort): 41 (17) n (%)
  Number of months a subject was a responder: Two months (Abnormal bowel habits): 54 (22) n (%)
  Number of months a subject was a responder: Two months (IBS symptoms): 51 (21) n (%)
  Number of months a subject was a responder: Zero months (Abdominal pain/discomfort): 61 (25) n (%)
  Number of months a subject was a responder: Zero months (Abnormal bowel habits): 57 (23) n (%)
  Number of months a subject was a responder: Zero months (IBS symptoms): 63 (26) n (%)
[2]
  Overall responder rate, adequate relief of IBS symptoms: 84 (57) n (%)
  Overall responder rate, adequate relief of abdominal pain/discomfort: 88 (59) n (%)
  Overall responder rate, adequate relief of abnormal bowel habits: 91 (61) n (%)
  Number of months a subject was a responder: One month (Abdominal pain/discomfort): 19 (13) n (%)
  Number of months a subject was a responder: One month (Abnormal bowel habits): 18 (12) n (%)
  Number of months a subject was a responder: One month (IBS symptoms): 18 (12) n (%)
  Number of months a subject was a responder: Three months (Abdominal pain/discomfort): 56 (38) n (%)
  Number of months a subject was a responder: Three months (Abnormal bowel habits): 60 (41) n (%)
  Number of months a subject was a responder: Three months (IBS symptoms): 54 (36) n (%)
  Number of months a subject was a responder: Two months (Abdominal pain/discomfort): 29 (20) n (%)
  Number of months a subject was a responder: Two months (Abnormal bowel habits): 29 (20) n (%)
  Number of months a subject was a responder: Two months (IBS symptoms): 29 (20) n (%)
  Number of months a subject was a responder: Zero months (Abdominal pain/discomfort): 44 (30) n (%)
  Number of months a subject was a responder: Zero months (Abnormal bowel habits): 41 (28) n (%)
  Number of months a subject was a responder: Zero months (IBS symptoms): 47 (32) n (%)
[3]
  Number of months a subject was a responder during Months 1 to 3: Abdominal pain/discomfort, One month: 14 (15) n (%)
  Number of months a subject was a responder during Months 1 to 3: Abdominal pain/discomfort, Three months: 37 (39) n (%)
  Number of months a subject was a responder during Months 1 to 3: Abdominal pain/discomfort, Two months: 19 (20) n (%)
  Number of months a subject was a responder during Months 1 to 3: Abdominal pain/discomfort, Zero months: 26 (27) n (%)
  Number of months a subject was a responder during Months 1 to 3: Abnormal bowel habits, One month: 11 (11) n (%)
  Number of months a subject was a responder during Months 1 to 3: Abnormal bowel habits, Three months: 36 (38) n (%)
  Number of months a subject was a responder during Months 1 to 3: Abnormal bowel habits, Two months: 25 (26) n (%)
  Number of months a subject was a responder during Months 1 to 3: Abnormal bowel habits, Zero months: 24 (25) n (%)
